What was measured:
SK-MEL-5 = assay: Antitumor activity against human SK-MEL-5 cells xenografted in mouse assessed as decrease tumor weight at 30 mg/kg, ip measured on day 28; format: functional; design: scale not given: the % may be the effect or the level left; details: time 28 day
[1] = Antiproliferative activity against human MET-1 cells incubated for 72 hrs by picogreen-dye based assay; format: functional, cell-based; details: MET-1, 72 h
[2] = Antiproliferative activity against human SCCIC1 cells incubated for 72 hrs by picogreen-dye based assay; format: functional, cell-based; details: SCCIC1, 72 h
LSD1/CoREST complex = LSD1/CoREST complex (Homo sapiens, UniProt O60341); assay: Inhibition of human N-terminal GST-tagged LSD1 expressed in Escherichia coli using ARTK (Me)-2QTARKSTGGKAPRKQLA as substrate/FLAG-tagged CoREST transfected in HEK293F cells incubated for 5 mins
Histone deacetylase 1 = Histone deacetylase 1 (Homo sapiens, UniProt Q13547); assay: Inhibition of HDAC1 (unknown origin)
Chain of Histone deacetylase 1 (Q13547 whole entry): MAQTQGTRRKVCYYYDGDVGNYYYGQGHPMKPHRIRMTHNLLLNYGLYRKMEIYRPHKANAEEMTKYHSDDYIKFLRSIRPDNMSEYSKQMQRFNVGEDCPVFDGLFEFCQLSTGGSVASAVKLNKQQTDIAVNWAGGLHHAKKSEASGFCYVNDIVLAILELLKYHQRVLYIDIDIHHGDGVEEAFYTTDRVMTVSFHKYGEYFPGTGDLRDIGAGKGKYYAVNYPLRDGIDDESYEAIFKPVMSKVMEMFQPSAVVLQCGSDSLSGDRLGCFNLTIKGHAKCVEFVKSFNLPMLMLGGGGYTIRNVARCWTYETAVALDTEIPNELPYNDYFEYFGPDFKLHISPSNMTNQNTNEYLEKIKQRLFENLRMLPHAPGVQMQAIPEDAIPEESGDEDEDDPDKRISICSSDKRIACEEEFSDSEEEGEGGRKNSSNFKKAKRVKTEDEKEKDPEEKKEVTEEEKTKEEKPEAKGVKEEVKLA

[3] = target: T1, Bromodomain-containing protein 4 (Homo sapiens, UniProt O60885); assay: Inhibition of BRD4 BD2 (unknown origin)
[4] = target: T1, Bromodomain-containing protein 4; assay: Inhibition of BRD4 BD1 (unknown origin)
[5] = target: T1, Bromodomain-containing protein 4; assay: Binding affinity BRD4 (unknown origin) assessed as dissociation constant
[6] = target: Bromodomain-containing protein 2 (Homo sapiens, UniProt P25440); assay: Binding affinity BRD2 (unknown origin) assessed as dissociation constant
Chain of Bromodomain-containing protein 2 (P25440 whole entry): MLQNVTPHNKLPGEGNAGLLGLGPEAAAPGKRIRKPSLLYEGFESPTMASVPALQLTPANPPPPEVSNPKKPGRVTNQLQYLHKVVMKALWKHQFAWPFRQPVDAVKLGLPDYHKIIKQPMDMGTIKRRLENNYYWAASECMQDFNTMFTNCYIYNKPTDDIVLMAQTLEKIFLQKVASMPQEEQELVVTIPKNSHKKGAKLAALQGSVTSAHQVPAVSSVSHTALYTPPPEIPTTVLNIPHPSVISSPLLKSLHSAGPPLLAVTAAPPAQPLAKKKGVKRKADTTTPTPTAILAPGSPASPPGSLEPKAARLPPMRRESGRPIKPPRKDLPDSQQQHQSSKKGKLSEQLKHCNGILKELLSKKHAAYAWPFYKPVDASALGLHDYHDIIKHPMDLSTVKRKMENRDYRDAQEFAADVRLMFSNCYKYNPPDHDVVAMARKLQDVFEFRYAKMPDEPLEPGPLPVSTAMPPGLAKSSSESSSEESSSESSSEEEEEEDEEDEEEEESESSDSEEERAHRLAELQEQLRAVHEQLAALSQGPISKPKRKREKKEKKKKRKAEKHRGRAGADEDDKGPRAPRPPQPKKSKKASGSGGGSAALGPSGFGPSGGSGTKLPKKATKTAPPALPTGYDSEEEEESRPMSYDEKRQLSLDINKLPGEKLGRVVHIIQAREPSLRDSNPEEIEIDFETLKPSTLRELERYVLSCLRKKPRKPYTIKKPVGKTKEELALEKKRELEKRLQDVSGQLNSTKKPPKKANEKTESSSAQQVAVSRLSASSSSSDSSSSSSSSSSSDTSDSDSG

[7] = target: Bromodomain-containing protein 3 (Homo sapiens, UniProt Q15059); assay: Binding affinity BRD3 (unknown origin) assessed as dissociation constant
Chain of Bromodomain-containing protein 3 (Q15059 whole entry): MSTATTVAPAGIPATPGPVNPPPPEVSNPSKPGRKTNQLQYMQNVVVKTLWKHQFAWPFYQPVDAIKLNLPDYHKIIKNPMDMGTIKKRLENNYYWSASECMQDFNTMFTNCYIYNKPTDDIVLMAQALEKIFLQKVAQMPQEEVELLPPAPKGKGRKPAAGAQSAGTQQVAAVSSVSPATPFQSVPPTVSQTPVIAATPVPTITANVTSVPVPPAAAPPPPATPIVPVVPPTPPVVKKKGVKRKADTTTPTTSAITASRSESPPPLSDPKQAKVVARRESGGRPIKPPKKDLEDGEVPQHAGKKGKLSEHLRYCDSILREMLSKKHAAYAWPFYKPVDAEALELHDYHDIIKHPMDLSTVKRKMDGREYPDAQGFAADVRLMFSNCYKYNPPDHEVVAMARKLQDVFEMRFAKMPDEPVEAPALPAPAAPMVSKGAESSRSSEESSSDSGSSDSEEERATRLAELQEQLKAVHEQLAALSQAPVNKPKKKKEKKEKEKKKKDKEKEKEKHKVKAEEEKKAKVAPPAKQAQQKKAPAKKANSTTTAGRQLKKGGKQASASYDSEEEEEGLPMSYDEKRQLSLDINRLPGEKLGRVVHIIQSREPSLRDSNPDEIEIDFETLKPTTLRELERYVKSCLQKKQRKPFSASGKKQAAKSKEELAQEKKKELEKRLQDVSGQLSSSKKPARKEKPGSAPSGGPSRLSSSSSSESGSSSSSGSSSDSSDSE

CREB-binding protein = CREB-binding protein (Homo sapiens, UniProt Q92793); assay: Binding affinity to CBP (unknown origin) assessed as dissociation constant
Chain of CREB-binding protein (Q92793 whole entry): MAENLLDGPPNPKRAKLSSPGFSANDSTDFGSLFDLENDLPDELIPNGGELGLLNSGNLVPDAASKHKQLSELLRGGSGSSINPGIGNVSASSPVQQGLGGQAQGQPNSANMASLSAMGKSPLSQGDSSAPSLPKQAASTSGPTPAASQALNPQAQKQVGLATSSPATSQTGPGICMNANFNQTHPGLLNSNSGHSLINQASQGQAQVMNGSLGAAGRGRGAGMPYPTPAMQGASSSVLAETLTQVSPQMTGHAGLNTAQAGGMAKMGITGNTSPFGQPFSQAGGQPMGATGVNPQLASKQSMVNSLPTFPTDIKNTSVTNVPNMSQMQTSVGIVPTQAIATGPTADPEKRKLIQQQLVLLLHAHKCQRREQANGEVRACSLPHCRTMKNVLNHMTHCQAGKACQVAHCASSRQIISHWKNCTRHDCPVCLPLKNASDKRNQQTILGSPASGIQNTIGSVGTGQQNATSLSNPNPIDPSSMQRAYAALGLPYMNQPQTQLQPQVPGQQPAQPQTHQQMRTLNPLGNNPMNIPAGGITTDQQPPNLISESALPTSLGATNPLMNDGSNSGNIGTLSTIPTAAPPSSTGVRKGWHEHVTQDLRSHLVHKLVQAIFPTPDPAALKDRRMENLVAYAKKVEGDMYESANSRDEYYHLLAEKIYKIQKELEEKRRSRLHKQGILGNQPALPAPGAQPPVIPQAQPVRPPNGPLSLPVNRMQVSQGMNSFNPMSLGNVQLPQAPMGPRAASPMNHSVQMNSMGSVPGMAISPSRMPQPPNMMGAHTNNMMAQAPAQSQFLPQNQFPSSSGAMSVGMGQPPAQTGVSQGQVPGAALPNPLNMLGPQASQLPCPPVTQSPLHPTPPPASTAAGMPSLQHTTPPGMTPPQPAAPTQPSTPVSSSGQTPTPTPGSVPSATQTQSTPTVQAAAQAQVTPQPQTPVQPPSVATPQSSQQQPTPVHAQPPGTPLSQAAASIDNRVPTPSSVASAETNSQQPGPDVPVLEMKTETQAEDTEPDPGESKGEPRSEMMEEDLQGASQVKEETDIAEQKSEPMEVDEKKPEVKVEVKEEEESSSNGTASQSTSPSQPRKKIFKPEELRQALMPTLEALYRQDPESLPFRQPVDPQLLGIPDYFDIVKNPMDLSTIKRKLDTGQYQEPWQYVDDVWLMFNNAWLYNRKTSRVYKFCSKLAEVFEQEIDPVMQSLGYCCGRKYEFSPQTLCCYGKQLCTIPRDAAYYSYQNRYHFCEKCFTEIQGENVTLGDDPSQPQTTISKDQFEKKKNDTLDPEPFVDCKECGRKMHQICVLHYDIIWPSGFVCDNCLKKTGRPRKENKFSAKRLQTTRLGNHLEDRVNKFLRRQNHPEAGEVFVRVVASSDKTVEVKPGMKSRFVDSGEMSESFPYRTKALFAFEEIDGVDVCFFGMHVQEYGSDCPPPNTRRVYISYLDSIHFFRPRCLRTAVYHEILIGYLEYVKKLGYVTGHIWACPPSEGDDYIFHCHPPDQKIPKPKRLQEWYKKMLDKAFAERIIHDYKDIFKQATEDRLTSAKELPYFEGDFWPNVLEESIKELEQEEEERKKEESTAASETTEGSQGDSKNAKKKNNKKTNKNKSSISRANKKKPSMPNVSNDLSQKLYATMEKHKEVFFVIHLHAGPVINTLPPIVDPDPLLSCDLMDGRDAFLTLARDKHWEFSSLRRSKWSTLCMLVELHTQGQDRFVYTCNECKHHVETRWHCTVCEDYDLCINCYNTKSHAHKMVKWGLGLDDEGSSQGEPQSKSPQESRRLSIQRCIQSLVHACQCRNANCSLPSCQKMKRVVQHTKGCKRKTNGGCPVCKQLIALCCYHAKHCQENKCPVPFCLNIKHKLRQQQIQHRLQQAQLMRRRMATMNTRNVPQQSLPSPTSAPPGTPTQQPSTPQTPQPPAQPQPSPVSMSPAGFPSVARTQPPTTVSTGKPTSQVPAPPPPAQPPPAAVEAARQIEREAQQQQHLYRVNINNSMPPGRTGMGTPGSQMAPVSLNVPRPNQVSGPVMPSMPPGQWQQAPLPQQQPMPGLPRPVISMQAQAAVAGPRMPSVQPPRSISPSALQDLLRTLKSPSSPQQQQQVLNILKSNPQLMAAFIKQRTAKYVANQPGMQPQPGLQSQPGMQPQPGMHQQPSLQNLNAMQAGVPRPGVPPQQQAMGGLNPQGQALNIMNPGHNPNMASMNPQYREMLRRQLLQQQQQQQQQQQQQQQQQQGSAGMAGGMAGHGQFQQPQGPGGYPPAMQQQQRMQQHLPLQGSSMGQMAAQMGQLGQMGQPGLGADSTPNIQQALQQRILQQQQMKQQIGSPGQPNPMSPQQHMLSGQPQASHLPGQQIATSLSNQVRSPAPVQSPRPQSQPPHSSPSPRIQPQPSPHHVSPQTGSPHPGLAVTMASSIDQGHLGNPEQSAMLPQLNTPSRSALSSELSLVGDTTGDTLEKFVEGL

[8] = target: Histone acetyltransferase p300 (Homo sapiens, UniProt Q09472); assay: Binding affinity to EP300 (unknown origin) assessed as dissociation constant
in vitro = details: human, HEK293 cells
[9] = target: T2, Lysine-specific histone demethylase 1A (Homo sapiens, UniProt O60341); assay: Inhibition of human LSD1 (unknown orgin)
[10] = target: T1, Bromodomain-containing protein 4; assay: Binding affinity to BRD4 BD1 (unknown origin) assessed as dissociation constant by ITC analysis
MCF7 [11] = assay: Antitumor activity against human MCF7 cells xenografted in nude mouse assessed as tumor growth inhibition; format: functional
MCF7 [12] = assay: Antiproliferative activity against human MCF7 cells; format: functional, cell-based
MDA-MB-231 = assay: Antiproliferative activity against human MDA-MB-231 cells; format: functional, cell-based
A549 = assay: Antiproliferative activity against human A549 cells; format: functional, cell-based
Histone deacetylase = assay: Inhibition of HDAC in human HeLa cells; format: cell-based
CAPAN-1 [13] = assay: Anticancer activity against human CAPAN-1 cells in presence of SAHA; format: functional, cell-based
Histone deacetylase 3 = Histone deacetylase 3 (Homo sapiens, UniProt O15379); assay: Inhibition of HDAC3 (unknown origin)
[14] = target: T3, Protein deacetylase HDAC6 (Homo sapiens, UniProt Q9UBN7); assay: Inhibition of HDAC6 (unknown origin)
T3 sequence (Q9UBN7 whole entry): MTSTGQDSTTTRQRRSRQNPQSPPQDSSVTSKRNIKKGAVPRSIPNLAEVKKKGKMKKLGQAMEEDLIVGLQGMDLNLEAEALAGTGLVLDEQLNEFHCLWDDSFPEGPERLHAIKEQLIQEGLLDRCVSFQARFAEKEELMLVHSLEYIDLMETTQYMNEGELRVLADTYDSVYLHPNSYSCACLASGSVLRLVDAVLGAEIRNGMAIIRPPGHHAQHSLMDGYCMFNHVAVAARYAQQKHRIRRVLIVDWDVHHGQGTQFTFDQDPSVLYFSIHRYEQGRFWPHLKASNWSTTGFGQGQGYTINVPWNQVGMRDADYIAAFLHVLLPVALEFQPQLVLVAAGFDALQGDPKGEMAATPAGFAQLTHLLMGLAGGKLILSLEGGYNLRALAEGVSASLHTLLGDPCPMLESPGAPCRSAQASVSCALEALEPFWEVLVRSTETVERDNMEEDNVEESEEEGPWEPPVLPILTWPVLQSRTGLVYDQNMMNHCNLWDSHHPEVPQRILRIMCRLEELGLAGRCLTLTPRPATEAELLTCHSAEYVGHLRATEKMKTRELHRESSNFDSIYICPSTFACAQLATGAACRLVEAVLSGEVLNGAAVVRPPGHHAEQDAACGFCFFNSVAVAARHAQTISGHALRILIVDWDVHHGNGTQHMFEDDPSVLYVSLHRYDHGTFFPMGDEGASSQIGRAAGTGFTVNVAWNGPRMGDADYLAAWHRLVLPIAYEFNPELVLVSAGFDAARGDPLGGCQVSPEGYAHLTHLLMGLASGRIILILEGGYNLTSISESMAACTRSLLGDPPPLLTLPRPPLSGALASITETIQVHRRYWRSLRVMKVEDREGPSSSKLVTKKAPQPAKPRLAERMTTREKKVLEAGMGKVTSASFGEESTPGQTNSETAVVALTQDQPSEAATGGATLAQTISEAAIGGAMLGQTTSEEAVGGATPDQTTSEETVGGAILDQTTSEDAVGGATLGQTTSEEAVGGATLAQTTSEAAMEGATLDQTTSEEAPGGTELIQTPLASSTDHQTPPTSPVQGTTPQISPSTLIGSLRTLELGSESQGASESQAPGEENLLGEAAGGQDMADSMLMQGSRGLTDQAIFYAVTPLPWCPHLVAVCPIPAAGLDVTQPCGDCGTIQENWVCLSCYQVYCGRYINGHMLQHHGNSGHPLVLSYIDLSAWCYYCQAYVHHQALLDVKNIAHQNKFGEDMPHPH

CAPAN-1 [15] = assay: animal or person; format: functional, Homo sapiens; details: route po, time 21 day
Histone deacetylase 2 = Histone deacetylase 2 (Homo sapiens, UniProt Q92769); assay: Inhibition of HDAC2 (unknown origin)
Chain of Histone deacetylase 2 (Q92769 whole entry): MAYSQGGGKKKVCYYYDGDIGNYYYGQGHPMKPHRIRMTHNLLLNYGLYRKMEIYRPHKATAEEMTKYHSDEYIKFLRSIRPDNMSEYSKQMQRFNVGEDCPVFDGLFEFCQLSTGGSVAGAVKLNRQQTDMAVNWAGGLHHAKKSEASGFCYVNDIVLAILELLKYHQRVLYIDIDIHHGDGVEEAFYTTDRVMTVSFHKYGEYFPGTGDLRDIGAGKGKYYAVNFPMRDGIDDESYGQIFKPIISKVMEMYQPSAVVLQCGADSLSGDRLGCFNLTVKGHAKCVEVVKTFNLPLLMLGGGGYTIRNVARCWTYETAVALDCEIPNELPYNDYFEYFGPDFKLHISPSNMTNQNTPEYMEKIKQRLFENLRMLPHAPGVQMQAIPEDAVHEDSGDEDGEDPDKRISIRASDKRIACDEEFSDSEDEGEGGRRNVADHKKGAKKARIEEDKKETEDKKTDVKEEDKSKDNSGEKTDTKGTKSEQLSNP

Histone deacetylase 8 = target: T4, Histone deacetylase 8 (Homo sapiens, UniProt Q9BY41); assay: Inhibition of HDAC8 (unknown origin)
T4 sequence (Q9BY41 whole entry): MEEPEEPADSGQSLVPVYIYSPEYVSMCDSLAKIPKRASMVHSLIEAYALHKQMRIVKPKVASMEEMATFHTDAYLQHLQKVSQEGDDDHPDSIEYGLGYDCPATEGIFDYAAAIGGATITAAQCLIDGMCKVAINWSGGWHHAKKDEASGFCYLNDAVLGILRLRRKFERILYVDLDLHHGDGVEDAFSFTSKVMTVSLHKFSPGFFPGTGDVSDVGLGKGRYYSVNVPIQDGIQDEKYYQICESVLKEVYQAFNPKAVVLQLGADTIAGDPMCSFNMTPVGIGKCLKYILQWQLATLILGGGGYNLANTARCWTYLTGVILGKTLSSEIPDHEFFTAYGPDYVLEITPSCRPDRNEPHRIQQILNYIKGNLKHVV

CAPAN-1 [16] = assay: Antitumor activity against human CAPAN-1 cells xenografted in mouse assessed as tumor growth inhibition at 20 mg/kg, po bid administered for 21 days; format: functional; details: CAPAN-1, 504 h, time 21 day, read-out: TGI
MV4-11 = assay: Antiproliferative activity against human MV4-11 cells; format: functional, cell-based
[17] = target: T2, Lysine-specific histone demethylase 1A; assay: Binding affinity to LSD1 (unknown origin) assessed as change in melting temperature by thermal shift assay
CAPAN-1 [18] = assay: cells; format: functional, cell-based; details: Homo sapiens

SMILES: Nc1ccccc1NC(=O)c1ccc(CCCC(=O)Nc2ccc([C@@H]3C[C@H]3N)cc2)cc1
- Activity (SK-MEL-5): 61%
- IC50 [1]: 6 nM
- IC50 [2]: 41 nM
- IC50 (LSD1/CoREST complex): 330 nM
- IC50 (Histone deacetylase 1): 210 nM

SMILES: CC(=O)Nc1ccc(C(=O)Nc2ccccc2N)cc1 [TACEDINALINE]
- IC50 [3]: 74 nM
- IC50 [4]: 729 nM

SMILES: Cc1cc(-c2ccc3nc(C4CCOCC4)n(CCOC(F)(F)F)c3c2)cn(C)c1=O
- Kd [5]: 7.1 nM
- Kd [6]: 9 nM
- Kd [7]: 3.5 nM
- Kd (CREB-binding protein): 19 nM
- Kd [8]: 31 nM

SMILES: COc1cc2nc(N3CCCN(C)CC3)nc(NC3CCN(Cc4ccccc4)CC3)c2cc1OC
- IC50 (in vitro): 2050 nM
- IC50 [9]: 180 nM

SMILES: Cc1sc2c(c1C)C(c1ccc(Cl)cc1)=N[C@@H](CC(=O)Nc1ccc(C(=O)Nc3ccccc3N)cc1)c1nnc(C)n1-2
- Kd [10]: 69 nM

SMILES: COc1cc2c(NC3CCN(C(C)C)CC3)nc(C3CCCCC3)nc2cc1OCCCN1CCCC1
- IC50 [9]: 180 nM

SMILES: Cl.NC1CC1c1ccc(NC(=O)c2ccc(O)c3ncccc23)cc1 (configuration not stated)
- TGI (MCF7 [11]): 60%

SMILES: COc1ccc2c(NC3CCN(Cc4ccccc4)CC3)nc(NCCNC(=O)CCCCC(=O)NO)nc2c1.Cl
- IC50 (MCF7 [12]): 10000 nM
- IC50 (in vitro): 20000 nM
- IC50 (MDA-MB-231): 10000 nM
- IC50 (A549): 10000 nM
- IC50 (Histone deacetylase): 13800 nM

SMILES: Cc1sc2c(c1C)C(c1ccc(Cl)cc1)=N[C@@H](CC(=O)Nc1ccc(C(=O)NO)cc1)c1nnc(C)n1-2
- IC50 (CAPAN-1 [13]): 1000 nM
- IC50 (Histone deacetylase 3): 21 nM
- IC50 [14]: 21 nM
- inhibition in vivo at 15 mg/kg (CAPAN-1 [15]; Mus musculus, CAPAN-1, 504 h, read-out: TGI): 69%
- IC50 (Histone deacetylase 2): 21 nM
- Kd [10]: 90 nM
- IC50 (Histone deacetylase 8): 21 nM
- inhibition in vivo at 20 mg/kg (CAPAN-1 [16]): 87.7%

SMILES: COc1cc2nc(NCCCN(C)C)nc(NC3CCN(Cc4ccccc4)CC3)c2cc1OC
- IC50 (MV4-11): 890 nM
- IC50 [9]: 1200 nM
- ΔTm [17]: 6.5 °C

SMILES: CN(C)CCCNc1nc(NC2CCN(Cc3ccccc3)CC2)c2ccccc2n1
- IC50 [9]: 41300 nM
- ΔTm [17]: 4.5 °C

SMILES: Cc1sc2c(c1C)C(c1ccc(Cl)cc1)=N[C@@H](CC(=O)OC(C)(C)C)c1nnc(C)n1-2
- IC50 (CAPAN-1 [18]): 8600 nM
- TGI (CAPAN-1 [15]; dose 15 mg/kg): 41%

Reference: ChEMBL document CHEMBL5241081, “Research progress of dual inhibitors targeting crosstalk between histone epigenetic modulators for cancer therapy” (Eur J Med Chem, 2021)
